What all share (type): functional
Experiment [1] deals with Lepidoptera. Nature of the experiment: Insecticidal activity against Lepidoptera infected rice plant assessed as white earhead damage at 0.75 kg ai/ha applied as emulsified concentrates through foliar spray on 30 to 50 days post planting (reference value: 12.17%).
The test system of experiment [2] is Lepidoptera. Description: Insecticidal activity against Lepidoptera infected rice plant assessed as dead heart damage at 0.75 kg ai/ha applied as emulsified concentrates through foliar spray on 30 to 50 days post planting (reference value: 11.87%).
For experiment [3], the system named is Lepidoptera. Nature of the experiment: Insecticidal activity against Lepidoptera infected rice plant assessed as increase in grain yield at 0.75 kg ai/ha applied as emulsified concentrates through foliar spray on 30 to 50 days post planting (reference value: 28%).
In experiment [4] the test system is Lepidoptera. Description: Insecticidal activity against Lepidoptera infected rice plant assessed as white earhead damage at 1 kg ai/ha applied as granules on 30 to 50 days post planting (reference value: 12.17%).
Experiment [5] deals with Lepidoptera. Nature of the experiment: Insecticidal activity against Lepidoptera infected rice plant assessed as dead heart damage at 1 kg ai/ha applied as granules on 30 to 50 days post planting (reference value: 11.87%).
Experiment [6] has as its system Lepidoptera. Description: Insecticidal activity against Lepidoptera infected rice plant assessed as increase in grain yield at 1 kg ai/ha applied as granules on 30 to 50 days post planting (reference value: 28%).
For experiment [7], the system named is Lepidoptera. Nature of the experiment: Insecticidal activity against Lepidoptera infected rice plant assessed as dead heart damage (reference value: 11.87%).
For experiment [8], the system named is Lepidoptera. Nature of the experiment: Insecticidal activity against Lepidoptera infected rice plant assessed as increase in grain yield (reference value: 28%).
Experiment [9] concerns Lepidoptera. Description: Insecticidal activity against Lepidoptera infected rice plant assessed as white earhead damage (reference value: 12.17%).

As for `CCOP(=S)(OCC)Oc1cc(C)nc(C(C)C)n1` [DIMPYLATE], the Activity in experiment [1] is 3.19%; in experiment [2] it was 8.14%. Besides, the Crop_yield in [3] is listed as 42%.

Consider `CNC(=O)Oc1cccc2c1OC(C)(C)C2` [CARBOFURAN], for which the Activity in [4] was determined as 5.14%; in [5], 4.15%. For the same compound, the Crop_yield in experiment [6] is given as 35%.

Consider `CCOP(=S)(OCC)Oc1cnc2ccccc2n1` [QUINALPHOS], for which the Activity turned out to be 4.12% in [7] and 6.33% in [9]. For the same compound, in experiment [8], the Crop_yield is given as 28%.

On to `CCOP(=O)(/N=C1\SCC(C)S1)OCC` (stereo unspecified) [CYTROLANE], for which the Activity is on record as 3.14% in [4] and 3.63% in [5]. Besides, the Crop_yield in experiment [6] is on record as 32%.

In the case of `CNC(=O)/C=C(\C)OP(=O)(OC)OC` [MONOCROTOPHOS], the Activity in experiment [7] is on record as 4.76%; in [9] it was 6.31%. The Crop_yield in experiment [8] is reported as 37%.

In the case of `CCOP(=S)(OCC)Oc1nc(Cl)c(Cl)cc1Cl` [CHLORPYRIFOS], the Activity is 6.72% in experiment [1], 7.26% in experiment [2], 6.18% in experiment [4] and 5.39% in [5]. In addition, the Crop_yield in experiment [3] was 36%; in experiment [6], 37%.

Values taken from ChEMBL document CHEMBL3045186, “Assessments of crop losses in rice ecosystems due to stem borer damage (Lepidoptera: Pyralidae)” (2006).
